The subject of assay [1] is L5178Y. Nature of the assay: Antitumor activity against mouse L5178Y cells allografted in CDF-1 mouse assessed as cytostatic activity administered on day 1 to day 9 post challenge. Type of assay: functional.
The nature of assay [2]: Competitive inhibition of aspartate aminotransferase in rat liver homogenate by Lineweaver-Burk plot method. Type of assay: tissue-based.
Assay [3] is described as follows: Growth inhibition of mouse 3T3-F cells at 10 ug/ml assessed as cell growth after 24 hrs by Coulter counting method. The assay is classed as functional.
Assay [4] in a line: Growth inhibition of mouse 3T3-F cells assessed as cell growth at 100 ug/ml after 24 hrs by Coulter counting method. Type of assay: functional.
For assay [5], the species on record is Mus musculus. Nature of the assay: Growth inhibition of mouse 3T3-F cells assessed as cell growth after 24 hrs by Coulter counting method. The assay is classed as functional.

The results in this text go back to ChEMBL document CHEMBL3272225, “Potential carcinostatics. Synthesis and biological properties of d- and 1-beta,beta-difluoroaspartic acid and beta,beta-difluoroasparagine” (J Med Chem, 1977).

Molecules are shown by their SMILES. Active and inactive are the calls of the source. No cut-off for these calls is given here.

Consider `NC(C(=O)O)C(F)(F)C(=O)O` (racemic), for which the outcome in assay [1] was inactive. In assay [2], this compound displayed a Ki of 1000 µM. As for `N[C@@H](C(=O)O)C(F)(F)C(=O)O`, the Cell growth at 10 µg/mL in assay [3] stood at 75%. In addition, the Cell growth at 100 µg/mL in assay [4] amounted to 12%.

As to `N[C@H](C(=O)O)C(F)(F)C(=O)O`, the result in assay [5] was inactive. Consider `NC(=O)C(F)(F)C(N)C(=O)O` (racemic), for which, in assay [1], the result was inactive.
